# From patent US8193192B2, “Heterocyclic FXR binding compounds” (Phenex Pharmaceuticals AG, priority 2006, dated 2012)
# Test: PAMPA permeability assay
# Assay type: in vitro ADME
# Settings: % of compound found in the receiver compartment after 16 hours; PBS pH 7.4, 5% DMSO, 23° C.
# Procedure: Artificial membrane permeability was determined as follows: Tested compounds were dissolved to 10 mM in 100% DMSO. Permeability of compounds was measured in PBS (pH 7.4), 5% DMSO at 23° C. Safire (Tecan) plate reader was used for measurement the UV/Vis absorption. Protocol: Dilute stocks of tested compounds and controls with PBS to 1.67 mM and mix well by pipetting, add 280 μl of PBS, 5% DMSO to acceptor plate, add 5 μl of 2% L-α-Phosphatidylcholine suspension in dodecane to the membrane of donor plate. Immediately add 98 μl of PBS to donor plate and make the sandwich with acceptor plate. Add 42 μl of tested compounds and controls dilutions to […], cover the plate, place into camera and incubate for 16 hours. Make the equilibrium plate, add 225 μl of PBS, 3.7% DMSO and 25 μl of tested compounds and controls dilutions to UV plate. After 16 hours pull the donor plate out and transfer 250 μl from acceptor plate to UV plate. Scan UV plate on Safire (Tecan) plate reader from […]. Permeability is reported in % of compound found in the receiver compartment after the incubation period. Applying this protocol, PAMPA permeabilities of examples and reference compounds were determined as follows (see Table 4): […]
smiles,measurement,value
"CC(C)c1onc(-c2c(Cl)cccc2Cl)c1COc1ccc(Oc2ccc(C(=O)O)cc2)cc1 [Compound A, reference compound]",PAMPA Permeability,32%
